Test results reported in article PMC6473744, “Antiproliferative Activity of (-)-Rabdosiin Isolated from Ocimum sanctum L” (Medicines, 2019).
≈ marks a conversion by molar mass, not a printed value. Values belong to the compound of their own block, whether it stands above or below them.

Experiments:
MCF-7 [1] = test: MTT reduction assay, cytotoxicity; format: cell-based, human; conditions: for IC50: Homo sapiens, MCF7
Experimental: Compounds were prepared at a stock solution of 10.0 mg/mL in DMSO and the extract at 20.0 mg/mL in DMSO. […] Cytotoxicity was evaluated by the MTT reduction assay, which determines the effect of treatment with an exogenously added agent on the viability of the cell population. […] Further, cells were incubated with the compounds for 72 h at 37 °C in a 5% CO2 incubator. The MTT reagent (Sigma-Aldrich, Darmstadt, Germany; 1 mg/mL in phosphate buffered saline (PBS); 100 μL/well) was added during the last 4 h of incubation. The formazan crystals formed were dissolved by adding 0.1 M HCl in 2-propanol (100 μL/well) and absorption was measured using an ELISA reader (Denley WeScan, Finland) at 545 nm with reference filter set at 690 nm. All cultures were set in triplicate, whereas cells incubated in complete medium or in medium containing the equivalent amount of DMSO, as well as cells incubated in the presence of doxorubicin (Sigma-Aldrich) were used as negative and positive controls, respectively.
All experiments were performed at least three times.

[2] = system: MCF-7, SKBR3, and HCT-116; test: MTT reduction assay, stated for all cell lines together; format: cell-based; conditions: Homo sapiens; all cell lines tested, positive control
Experimental: (§1) The cytotoxic activity of the compounds, as well as of the initial methanol extract, were tested against three human cancer cell lines: MCF-7 (breast; estrogen receptor positive (ER+), progesterone receptor (PR)+, and HER2 negative (-)), SKBR3 (breast; ER-, PR-, and HER2+), and HCT-116 (colon). All cell lines were maintained in RPMI-1640, supplemented with 10% heat-inactivated fetal bovine serum (FBS), 10 mM Hepes, 10 U/mL penicillin, 10 U/mL streptomycin, and […] (all from Lonza, Cologne, Germany) (thereafter referred to as complete medium) at 37 °C in a humidified 5% CO2 incubator.
Compounds were prepared at a stock solution of 10.0 mg/mL in DMSO and the extract at 20.0 mg/mL in DMSO. Prior to their use, they were diluted in plain RPMI-1640. Cytotoxicity was evaluated by the MTT reduction assay, which determines the effect of treatment with an exogenously added agent on the viability of the cell population. […] The formazan crystals formed were dissolved by adding 0.1 M HCl in 2-propanol (100 μL/well) and absorption was measured using an ELISA reader (Denley WeScan, Finland) at 545 nm with reference filter set at 690 nm. […] The half maximal inhibitory concentration (IC50) was calculated according to the formula: 100(A0 − A)/A0 = 50, where A and A0 are optical densities of wells exposed to the compounds and control wells, respectively. […]

SKBR3 [3] = test: MTT reduction assay, cytotoxicity; format: cell-based; conditions: Homo sapiens, SK-BR-3
Experimental: as §1
(§2) Compounds were prepared at a stock solution of 10.0 mg/mL in DMSO and the extract at 20.0 mg/mL in DMSO. Prior to their use, they were diluted in plain RPMI-1640. Cytotoxicity was evaluated by the MTT reduction assay, which determines the effect of treatment with an exogenously added agent on the viability of the cell population. Briefly, cells were plated in 96-well plates (Greiner Bio-One GmbH, Frickenhausen, Germany; 5 × 10^3 cells/well) and incubated at 5% CO2 and 95% air at 37 °C for 24 h, in order to adhere. Further, cells were incubated with the compounds for 72 h at 37 °C in a 5% CO2 incubator. The MTT reagent (Sigma-Aldrich, Darmstadt, Germany; 1 mg/mL in phosphate buffered saline (PBS); 100 μL/well) was added during the last 4 h of incubation. The formazan crystals formed were dissolved by adding 0.1 M HCl in 2-propanol (100 μL/well) and absorption was measured using an ELISA reader (Denley WeScan, Finland) at 545 nm with reference filter set at 690 nm. All cultures were set in triplicate, whereas cells incubated in complete medium or in medium containing the equivalent amount of DMSO, as well as cells incubated in the presence of doxorubicin (Sigma-Aldrich) were used as negative and positive controls, respectively. The half maximal inhibitory concentration (IC50) was calculated according to the formula: 100(A0 − A)/A0 = 50, where A and A0 are optical densities of wells exposed to the compounds and control wells, respectively.
(§3) The compounds were tested at a concentration range of 200.0 to 6.25 μg/mL and the extract at 750.0 to 1.25 μg/mL. […] All experiments were performed at least three times.

HCT-116 [4] = test: MTT reduction assay, cytotoxicity; format: cell-based; conditions: Homo sapiens
Experimental: as §1, §2, §3

[5] = system: human peripheral blood mononuclear cells (PBMCs); test: Cytotoxic effect against PBMCs, annexin V/PI flow cytometry; format: cell-based; conditions: 24 h
Experimental: (§4) MCF-7, SKBR3 and HCT-116 cells were incubated with compound 6 and analyzed with flow cytometry following staining with annexin V and propidium iodide (PI). […] Cells were detached with 2 mM EDTA in Dulbecco’s PBS (DPBS), harvested, centrifuged in cold PBS (1500 rpm; 5 min), and stained with the Annexin V-FITC Apoptosis Detection Kit (BioLegend, Fell, Germany; cat# 640914), according to the manufacturers’ instructions. In brief, cells were resuspended in binding buffer, then annexin V-FITC (5 μL) and PI (10 μL; 0.03 μg/sample) were added, mixed, and incubated with the cells for 15 min in the dark at room temperature. The volume was adjusted to 500 μL with binding buffer and the cell suspension was immediately analyzed in a FACSCanto II (BD Biosciences, San Diego, CA, USA) using FACSDiva software (V7, BD Biosciences).
Compound 6 was additionally assessed for its cytotoxicity against human peripheral blood mononuclear cells (PBMCs) isolated from healthy blood donors’ peripheral blood as previously described. Prior to blood draw, individuals gave their informed consent according to the regulations approved by the 2nd Peripheral Blood Transfusion Unit and Hemophiliac Centre, “Laikon” General Hospital Institutional Review Board, Athens, Greece. PBMCs were seeded in 24-well plates (5 × 10^5/mL; 2 mL/well) and exposed to 2 concentrations of compound 6: 80 μg/mL and 40 μg/mL. PBMCs were collected, stained as described in 2.5 and analyzed by flow cytometry.

[6] = system: MCF-7, SKBR3, and HCT-116 cells; test: Annexin V/PI flow cytometry, stated for all cell lines together; format: cell-based, human; conditions: 72 h
Experimental: as §4

SKBR3 [7] = test: Annexin V/PI flow cytometry analysis; format: cell-based, human; conditions: SKBR3, 80 μg/mL, 72 h
Experimental: as §4

HCT-116 [8] = test: Annexin V/PI flow cytometry analysis; format: cell-based, human; conditions: HCT-116, 80 μg/mL, 72 h
Experimental: as §4

MCF-7 [9] = test: Annexin V/PI flow cytometry analysis; format: cell-based, human; conditions: MCF-7, 80 μg/mL, 72 h
Experimental: as §4

[10] = MCF-7, 72 h exposure, mean ± SD of three experiments
[11] = 40 μg/mL, range over the cell lines

Compound: O=C(O[C@H](Cc1ccc(O)c(O)c1)C(=O)O)[C@H]1[C@H](C(=O)O[C@H](Cc2ccc(O)c(O)c2)C(=O)O)[C@H](c2ccc(O)c(O)c2)[C@H]1c1ccc(O)c(O)c1 [Compound 7, shimobashiric acid C]
IC50 ± SD (MCF-7 [1]; [10]): 142 ± 3.54 µg/mL (≈ 197 µM)

Compound: O=C(O)c1ccc(O)c(O)c1 [Compound 13, protocatechuic acid]
IC50 (MCF-7 [1]; [10]): 140 ± 4.95 µg/mL

Compound: O=C(O)/C=C/c1ccc(O[C@@H]2O[C@H](CO)[C@@H](O)[C@H](O)[C@H]2O)cc1 [Compound 11, (E)-p-coumaroyl 4-O-β-D-glucoside]
IC50 ± SD (MCF-7 [1]; [10]): 139 ± 7.78 µg/mL (≈ 426 µM)

Compound: O=C(O)[C@H]1O[C@@H](Oc2cc(O)c3c(=O)cc(-c4ccc(O)c(O)c4)oc3c2)[C@H](O)[C@@H](O)[C@@H]1O [Compound 9, luteolin 7-O-β-D-glucuronide]
IC50 ± SD (MCF-7 [1]; [10]): 141 ± 1.41 µg/mL (≈ 305 µM)

IC50 [2]: ≤ 200 nM
Compound: COc1cccc2c1C(=O)c1c(O)c3c(c(O)c1C2=O)C[C@@](O)(C(=O)CO)C[C@@H]3O[C@H]1C[C@H](N)[C@H](O)[C@H](C)O1 [Doxorubicin, reference compound]
IC50 (SKBR3 [3]; SKBR3, positive control): 95 ± 8 nM
IC50 (HCT-116 [4]; HCT-116, positive control): 192 ± 29 nM
IC50 (MCF-7 [1]; MCF-7, positive control): 92 ± 7 nM

Compound: O=C(O)C(O)Cc1ccc(O)c(O)c1 (centres unmarked) [Compound 12, 3-(3,4-dihydroxyphenyl) lactic acid]
IC50 (MCF-7 [1]; [10]): 140 ± 12 µg/mL

Compound: O=C(O[C@H](Cc1ccc(O)c(O)c1)C(=O)O)C1=Cc2cc(O)c(O)cc2[C@@H](c2ccc(O)c(O)c2)[C@@H]1C(=O)O[C@H](Cc1ccc(O)c(O)c1)C(=O)O [Compound 6, (-)-rabdosiin]
IC50 (SKBR3 [3]; SKBR3, 72 h exposure, mean ± SD of three experiments): 83 ± 3.54 µg/mL
IC50 (HCT-116 [4]; HCT-116, 72 h exposure, mean ± SD of three experiments): 84 ± 7.78 µg/mL
early apoptotic PBMCs ([5]; donor 1, 40 μg/mL): 1.8%
late apoptotic/necrotic PBMCs ([5]; donor 1, 40 μg/mL): 1.7%
early apoptotic PBMCs ([5]; donor 1, 80 μg/mL): 2.8%
late apoptotic/necrotic PBMCs ([5]; donor 1, 80 μg/mL): 3.0%
early apoptotic PBMCs ([5]; donor 2, 40 μg/mL): 2.1%
late apoptotic/necrotic PBMCs ([5]; donor 2, 40 μg/mL): 1.9%
early apoptotic PBMCs ([5]; donor 2, 80 μg/mL): 4.3%
late apoptotic/necrotic PBMCs ([5]; donor 2, 80 μg/mL): 3.1%
early apoptotic cells [6, 11]: 13.5–20.1%
late apoptotic/necrotic cells [6, 11]: 3.9–6.5%
cells driven to apoptosis ([6]; 80 μg/mL, all cell lines): ca. 50%
IC50 (MCF-7 [1]; [10]): 75 ± 2.12 µg/mL
early apoptotic cells (annexin V+) (SKBR3 [7]): 40.1%
late apoptotic/necrotic cells (annexin V+/PI+) (SKBR3 [7]): 9.1%
early apoptotic cells (annexin V+) (HCT-116 [8]): 43.1%
late apoptotic/necrotic cells (annexin V+/PI+) (HCT-116 [8]): 10.2%
early apoptotic cells (annexin V+) (MCF-7 [9]): 44.9%
late apoptotic/necrotic cells (annexin V+/PI+) (MCF-7 [9]): 12.3%
